{"source": "paper PMC3189179", "about": "“Rapid Development of New Protein Biosensors Utilizing Peptides Obtained via Phage Display” (PLoS ONE, 2011)", "key": {"ALT (human liver) [1]": {"target": "T1, ALT (human liver) (Homo sapiens, UniProt P24298)", "T1 construct": "ALT (human liver) and lactate dehydrogenase (LDH) were obtained from Lee Biosolutions, Inc; purchased Lee Biosolutions, Inc. (St. Louis, Missouri); host or cells: human liver", "T1 sequence (P24298 2-496 limits assumed)": "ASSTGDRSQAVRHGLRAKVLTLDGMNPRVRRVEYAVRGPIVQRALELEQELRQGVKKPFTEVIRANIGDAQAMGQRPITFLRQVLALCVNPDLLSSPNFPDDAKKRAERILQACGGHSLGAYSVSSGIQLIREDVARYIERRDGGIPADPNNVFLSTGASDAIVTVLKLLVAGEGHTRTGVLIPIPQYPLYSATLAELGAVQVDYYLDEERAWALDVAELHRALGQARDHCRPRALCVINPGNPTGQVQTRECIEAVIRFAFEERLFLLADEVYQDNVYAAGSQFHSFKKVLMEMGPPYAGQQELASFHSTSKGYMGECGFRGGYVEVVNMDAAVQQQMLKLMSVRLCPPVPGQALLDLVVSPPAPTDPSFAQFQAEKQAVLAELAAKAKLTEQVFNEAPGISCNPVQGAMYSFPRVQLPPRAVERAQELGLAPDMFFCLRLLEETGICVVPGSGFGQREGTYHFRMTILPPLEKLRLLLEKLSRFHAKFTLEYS", "experiment": "ELISA for phage clone binding to immobilized ALT", "conditions": "10^5 to 10^11 pfu, triplicate, 405 nm, 1 hr room temperature", "procedure": "To test whether or not the selected phage clones from the biopanning procedure could bind to ALT, ELISA assays were performed. Microplates were coated with ALT (2.6 µg/mL) overnight at 4°C, blocked with blocking buffer, and washed 6 times with TBST solution (containing 0.1% Tween 20). Varying amounts of amplified phage clones were added to each well and incubated for 1 hr at room temperature. After washing, HRP-conjugated anti-M13 monoclonal antibody (diluted 1∶5000 in blocking buffer) was added and incubated at room temperature for 1 hr. Following incubation and washing again with the same buffer, ABTS and H2O2 (30%, v/v) were added and the absorbance was measured after a 1 hr incubation with mild agitation at 405 nm with a microplate spectrophotometer (Molecular Devices, Sunnyvale, CA).\nIn order to estimate the apparent dissociation constant for the ALT5-8 clone, further ELISA experiments were performed with extended phage concentrations. The data were fit to a Langmuir isotherm using non-linear regression (SigmaPlot, San Jose, CA) and the Kd,app was determined."}, "ALT (human liver) [2]": {"target": "T1, ALT (human liver)", "experiment": "Biopanning of phage-displayed peptide library over immobilized ALT", "assay_type": "binding", "conditions": "12 phage clones after fifth round of biopanning against ALT", "procedure": "ALT (2.6 µg/mL) was dissolved in NaHCO3 buffer (100 mM, pH 8.3) and transferred to the wells of polystyrene microplates. After overnight incubation with mild agitation at 4°C, the well surfaces were coated with ALT. The well surfaces were then blocked with blocking buffer (0.1 M NaHCO3 containing 2% BSA and 0.02% of NaN3) for 1 hr at 4°C, and washed 6 times with TBST (50 mM Tris-HCl pH 7.5, 150 mM NaCl, 0.1% Tween 20) to remove weakly bound ALT. […] Wells were washed 10 times with TBST to remove unbound phage. The bound phage were eluted with 100 µL of 0.2 M glycine-HCl (pH 2.2) and the elution was immediately neutralized with 15 µL Tris-HCl (1 M, pH 9.1) to prevent phage killing. The eluted phage were amplified in E. coli ER2738 and the phage were harvested by precipitation with NaCl/polyethylene glycol (20% (w/v) polyethylene glycol-8000 with 2.5 M NaCl). This biopanning process was repeated for five rounds. The concentration of Tween 20 in the washing step was increased from 0.1% in the first round of panning to 0.3% in the second round of panning and 0.5% in the final three rounds of panning. After each round of panning, the phage were titered using Luria-Bertani (LB) broth plates containing isopropyl β-D-thiogalactopyranoside (IPTG) and X-gal. After the fifth round of selection, twelve blue monocolonies were randomly picked and amplified for DNA sequencing."}, "ALT (human liver) [3]": {"target": "T1, ALT (human liver)", "experiment": "Coupled enzyme assay (ALT/LDH, NADH depletion): peptide inhibition of ALT, bi-bi ping-pong fit with competitive inhibitor", "assay_type": "biochemical", "procedure": "ALT enzyme kinetics were measured to determine the impact of the ALT5-8 peptide on the activity of the enzyme. Kinetic experiments were performed in a coupled assay where the pyruvate generated by ALT was reduced to lactate by LDH with the concomitant oxidation of NADH. The depletion of NADH was monitored by following its absorbance at 340 nm in UV-transparent microplates. […] The reactions were initiated by the addition of 330 U/L ALT and all measurements were made in triplicate. All stock solutions were prepared in 100 mM Tris-HCl buffer (pH 7.8), and all kinetic trials were conducted 300 µL at 37 °C. […] Free ALT5-8 peptide inhibitor (I) was added to the reactions at concentrations from 0–0.25 µM."}, "ALT (human liver) [4]": {"target": "T1, ALT (human liver)", "experiment": "QCM binding of ALT to immobilized peptide", "conditions": "ALT as compared to BSA and SA, 10 µg/mL each", "excerpt": "All reagents used were analytical grade or higher unless otherwise stated. Escherichia coli strain ER2738, a host for M13 phage, and a polyvalent M13 phage display kit (Ph.D.-12) which contained random 12-mer peptides were obtained from New England Biolabs (Ipswich, MA). ALT (human liver) and lactate dehydrogenase (LDH) were obtained from Lee Biosolutions, Inc. (St. Louis, Missouri). Horseradish peroxidase (HRP) conjugated anti-M13 monoclonal antibody was from GE Healthcare (Piscataway, NJ). Tween 20, 2,2′-Azino-bis(3-ethylbenzothiazoline-6-sulfonic acid) diammonium salt (ABTS), streptavidin (SA) from Streptomyces avidinii, bovine serum albumin (BSA), L-cysteine hydrochloride (98%) and all other chemicals were purchased from Sigma-Aldrich (St. Louis, MO). Polystyrene microplates were from Pierce Biotechnology (Rockford, IL). The ALT5-8 peptide modified with a C-terminal cysteine (sequence: […]) was synthesized (>90% purity) by Genscript (Piscataway, NJ). Quartz crystals (AT-cut, 5 MHz) with Au deposited on both sides were obtained from Inficon (East Syracuse, New York). Buffer solutions (pH = 7.3) containing 0.01 M sodium phosphate and 0.1 M NaCl were used to make all protein (1–10 µg/mL) and peptide (0.1 mM) solutions for the QCM and EIS measurements. All solutions were prepared using Milli-Q water. […]"}, "ALT (human liver) [5]": {"target": "T1, ALT (human liver)", "experiment": "EIS detection of ALT with peptide-modified gold electrode", "assay_type": "binding", "conditions": "biosensor made from the peptide coupled with EIS detection", "procedure": "All electrochemical measurements were performed with a µAUTOLAB potentiostat (Type III, FRA2, Metrohm Autolab, Netherlands). A gold wire (dia. 1 mm) sealed in epoxy was used as a working electrode and a platinum mesh was used as a counter electrode. All potentials measured are reported versus a Ag/AgCl reference electrode. Both cyclic voltammetry and EIS measurements were conducted in a solution of 1 mM ferro/ferricyanide in 0.1 M sodium perchlorate.\nCV and EIS were performed as previously described. Briefly, the gold electrodes were prepared in 0.1 mM peptide solution for 1 hr, followed by backfilling in 1 mM cysteine solution for 2 hr to obtain a Au-Pep-Cys electrode. The Au-Pep-Cys electrodes were incubated in ALT solution for 1 hr before CV and EIS measurements. After each electrode preparation step, the electrode is removed and placed into solutions of 1 mM ferro/ferricyanide in 0.1 M NaClO4for analysis. Therefore, all the electrochemical measurements were conducted in the ferro/ferricyanide solution which eliminates the effect of any potential viscosity differences between the sample solutions. CV experiments were performed at a potential scan rate of 100 mV/s. Impedance spectra were recorded over a frequency range of 0.1–10^5 Hz. […] The impedance was recorded and a Nyquist plot was obtained. […]"}, "ALT (human liver) [6]": {"target": "T1, ALT (human liver)", "experiment": "Uninhibited ALT enzyme kinetics (coupled ALT/LDH assay)", "assay_type": "biochemical", "conditions": "absence of peptide, pH 7.8, 37 °C, triplicate, bi-bi ping-pong fit (Eqn. 1)", "procedure": "ALT enzyme kinetics were measured to determine the impact of the ALT5-8 peptide on the activity of the enzyme. Kinetic experiments were performed in a coupled assay where the pyruvate generated by ALT was reduced to lactate by LDH with the concomitant oxidation of NADH. The depletion of NADH was monitored by following its absorbance at 340 nm in UV-transparent microplates. […] Initial concentrations of pyridoxal 5′-phosphate, NADH, and LDH were 0.1 mM, 0.25 mM and 47 U/L respectively. The reactions were initiated by the addition of 330 U/L ALT and all measurements were made in triplicate. All stock solutions were prepared in 100 mM Tris-HCl buffer (pH 7.8), and all kinetic trials were conducted 300 µL at 37 °C."}, "alanine aminotransferase [7]": {"target": "T2, alanine aminotransferase (Homo sapiens, UniProt P24298)", "T2 chain": "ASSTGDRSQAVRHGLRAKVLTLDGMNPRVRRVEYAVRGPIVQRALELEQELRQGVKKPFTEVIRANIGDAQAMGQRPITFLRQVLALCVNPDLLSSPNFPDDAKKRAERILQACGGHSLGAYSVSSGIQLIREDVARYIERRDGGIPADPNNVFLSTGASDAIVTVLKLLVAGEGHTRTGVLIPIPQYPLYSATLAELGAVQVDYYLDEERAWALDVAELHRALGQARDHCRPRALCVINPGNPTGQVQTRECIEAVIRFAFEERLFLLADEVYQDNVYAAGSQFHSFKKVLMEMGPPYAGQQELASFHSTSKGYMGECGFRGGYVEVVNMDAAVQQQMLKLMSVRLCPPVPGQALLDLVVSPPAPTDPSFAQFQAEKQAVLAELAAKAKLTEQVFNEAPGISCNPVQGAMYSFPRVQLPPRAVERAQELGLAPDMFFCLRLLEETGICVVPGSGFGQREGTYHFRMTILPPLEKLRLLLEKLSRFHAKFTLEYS", "experiment": "phage ELISA"}, "alanine aminotransferase [8]": {"target": "T2, alanine aminotransferase", "experiment": "QCM"}, "alanine aminotransferase [9]": {"target": "T2, alanine aminotransferase", "experiment": "enzyme inhibition kinetics"}, "[10]": {"substrate": "C[C@H](N)C(=O)O", "experiment": "purified protein, by the assay type", "conditions": "other: substrate of ALT, absence of peptide, pH 7.8, 37 °C, triplicate, bi-bi ping-pong fit (Eqn. 1)"}}}
{"molecule": "LETEWDSLWYAP [ALT5-9]", "values": [{"measurement": "affinity of phage clone for immobilized ALT (in words)", "setting": "ALT (human liver) [1]", "value": "low affinity for ALT similar to that of the M13 control phage"}, {"measurement": "Frequency of sequence among sequenced clones", "setting": "ALT (human liver) [2]", "value": "1/12"}]}
{"molecule": "SNNLYPQRAVST [ALT4-3]", "values": [{"measurement": "affinity of phage clone for immobilized ALT (in words)", "setting": "ALT (human liver) [1]", "value": "low affinity for ALT similar to that of the M13 control phage"}, {"measurement": "Frequency of sequence among sequenced clones", "setting": "ALT (human liver) [2]", "value": "1/12"}]}
{"molecule": "WHWRNPDFWYLK [ALT5-8, 12-mer peptide selected by M13 phage display over ALT; tested on phage and as free peptide]", "values": [{"measurement": "affinity of phage clone for immobilized ALT (in words)", "setting": "ALT (human liver) [1]", "value": "dose-dependent affinity for the ALT protein"}, {"measurement": "mode of inhibition", "setting": "ALT (human liver) [3]; Lineweaver-Burk plots, with respect to alanine", "value": "competitive inhibitor"}, {"measurement": "residual enzyme activity with peptide (in words)", "setting": "ALT (human liver) [3]; peptide to protein ratio 2∶1", "value": "the enzyme was still quite active"}, {"measurement": "selectivity (in words)", "setting": "ALT (human liver) [4]", "value": "selective for ALT as compared to BSA and SA"}, {"measurement": "limit of detection (LOD), EIS", "setting": "ALT (human liver) [5]", "value": 0.092, "unit": "µg/mL"}, {"measurement": "Frequency of sequence among sequenced clones", "setting": "ALT (human liver) [2]", "value": "10/12"}]}
{"molecule": "α-ketoglutarate [reference compound]", "values": [{"measurement": "Km", "setting": "ALT (human liver) [6]; substrate of ALT, read-out: Michaelis constant KM", "value": "90 ± 30", "unit": "µM"}]}
{"molecule": "WHWRNPDFWYLK (displayed on M13 phage)", "note": "[ALT5-8 peptide (phage-displayed)]", "values": [{"measurement": "Kd", "setting": "alanine aminotransferase [7]", "value": 85, "unit": "nM"}]}
{"molecule": "WHWRNPDFWYLKC (immobilized on gold via C-terminal cysteine)", "note": "[ALT5-8 peptide (C-terminal Cys)]", "values": [{"measurement": "Kd", "setting": "alanine aminotransferase [8]", "value": 20.1, "unit": "nM"}]}
{"molecule": "WHWRNPDFWYLK", "note": "[ALT5-8 peptide]", "values": [{"measurement": "Ki", "setting": "alanine aminotransferase [9]", "value": 71, "unit": "nM"}]}
{"molecule": "ALT (human liver) (Homo sapiens) (protein) ASSTGDRSQAVRHGLRAKVLTLDGMNPRVRRVEYAVRGPIVQRALELEQELRQGVKKPFTEVIRANIGDAQAMGQRPITFLRQVLALCVNPDLLSSPNFPDDAKKRAERILQACGGHSLGAYSVSSGIQLIREDVARYIERRDGGIPADPNNVFLSTGASDAIVTVLKLLVAGEGHTRTGVLIPIPQYPLYSATLAELGAVQVDYYLDEERAWALDVAELHRALGQARDHCRPRALCVINPGNPTGQVQTRECIEAVIRFAFEERLFLLADEVYQDNVYAAGSQFHSFKKVLMEMGPPYAGQQELASFHSTSKGYMGECGFRGGYVEVVNMDAAVQQQMLKLMSVRLCPPVPGQALLDLVVSPPAPTDPSFAQFQAEKQAVLAELAAKAKLTEQVFNEAPGISCNPVQGAMYSFPRVQLPPRAVERAQELGLAPDMFFCLRLLEETGICVVPGSGFGQREGTYHFRMTILPPLEKLRLLLEKLSRFHAKFTLEYS", "values": [{"measurement": "kcat", "setting": "ALT (human liver) [6]", "value": "5.8 ± 0.2", "unit": "s⁻¹"}, {"measurement": "Km", "setting": "[10]", "value": "8000 ± 900", "unit": "µM"}]}
